{
  "source": "paper PMC6366974",
  "about": "“The curcumin analog EF24 is a novel senolytic agent” (Aging (Albany NY), 2019)",
  "key": {"[1]": {"tested_on": "Bcl-2", "experiment": "Western blotting of protein expression in WI-38 cells", "type": "cell-based, human", "settings": "WI-38 IR-SCs, 0.5, 1 and 2 µM, 72 h; did not reach statistical significance", "experimental": "(§1) After treatment with vehicle or EF24 at 0.5, 1 and 2 µM for 72 h, WI-38 NCs or IR-SCs were harvested in 1.5mL microcentrifuge tubes, and lysed in RIPA buffer with EDTA and EGTA (Cat. No. BP-115DG, Boston BioProducts, Ashland, MA, USA) supplemented with 1% protease inhibitor cocktail (Cat. No. P8340, Sigma-Aldrich, St. Louis, MO, USA) and 1% phosphatase inhibitor cocktail (Cat. No. P0044, Sigma-Aldrich, St. Louis, MO, USA). An equal amount of protein (30 µg/lane) from each cell extract was resolved on a precast gel (Mini-PROTEAN TGX™, Cat. No. 456-1094, Bio-Rad, Hercules, CA, USA). Proteins were blotted to a precut 0.2 µm PVDF membrane (Invitrolon™, Cat. No. LC2002, Life Technologies, Carlsbad, CA, USA) by electrophoresis. The membranes were blocked with 1X TBS-Tween (TBST, Cat. No. J77500, Affymetrix, Santan Clara, CA, USA) containing 5% non-fat dry milk (Cat. No. sc-2324, Santa Cruz Biotechnology, Dallas, TX, USA), and subsequently probed with primary antibodies at a predetermined optimal concentration overnight at 4°C. The primary antibodies including Bcl-xl (Cat. No. 2762), Mcl-1 (Cat. No. 5453), and Bcl-2 (Cat. No. 2872) and β-actin (Cat. No. 4970) were purchased from Cell Signaling Technology (Danvers, MA, USA). After washing with TBST for 3 times (10 min each time), the membranes were incubated with the secondary horse radish peroxidase (HRP)-linked antibody (Cat. No. 7074, Cell Signaling Technology, Danvers, MA, USA) for 2 h at room temperature. Following sufficient washing with TBST, the membranes were incubated with chemiluminescent HRP substrate (Immobilon™ Western, Cat. No. P36599, MilliporeSigma, Billerica, MA, USA) that consists of equal volume of luminol reagent and peroxide solution. The blotting membranes were recorded using autoradiography (SRX-101, Konica, Shinjuku, Tokyo, Japan). For the proteasome inhibition experiment, IR-SCs were treated with vehicle (0.1% DMSO) or 1 µM MG132 (Cat. No. S2619, Selleckchem, Houston, TX, USA) for 1 h prior to the incubation with EF24 at 0, 0.5, 1 and 2 µM for 72h."}, "[2]": {"tested_on": "Bcl-xl", "experiment": "Western blotting of protein expression in WI-38 cells", "type": "cell-based, human", "settings": "72 h", "experimental": "as §1"}, "[3]": {"tested_on": "Mcl-1", "experiment": "Western blotting of protein expression in WI-38 cells", "type": "cell-based, human", "settings": "WI-38 IR-SCs, 0.5, 1 and 2 µM, 72 h", "experimental": "as §1"}, "[4]": {"tested_on": "pre-adipocytes IR-SCs", "experiment": "Cell viability assay (flow cytometry, PI)", "type": "cell-based", "settings": "Homo sapiens; Pre-adipocyte, 72 h"}, "[5]": {"tested_on": "BCL-XL, MCL-1 and BCL-2 mRNA", "experiment": "qPCR of mRNA levels in WI-38 cells", "type": "cell-based, human", "settings": "WI-38 NCs and IR-SCs, 72 h", "experimental": "The mRNA levels were measured with qPCR, as previously described. qPCR was run with TaqMan qPCR (Cat. No. 4444965, Thermo Fisher Scientific, Waltham, MA, USA) reagents and primers (Cat. No. 4331182, Thermo Fisher Scientific, Waltham, MA, USA)."}},
  "data": [
    {"smiles": "O=C1/C(=C/c2ccccc2F)CNC/C1=C\\c1ccccc1F", "note": "[EF24]", "values": [
      {"measurement": "levels of Bcl-2 in IR-SCs", "setting": "[1]", "value": "slightly reduced"},
      {"measurement": "expression of Bcl-xl in IR-SCs", "setting": "[2]; WI-38 IR-SCs, 0.5, 1 and 2 µM", "value": "significantly reduce"},
      {"measurement": "expression of Bcl-xl in NCs", "setting": "[2]; WI-38 NCs, 0.5, 1 and 2 µM", "value": "not in NCs"},
      {"measurement": "expression of Mcl-1 in IR-SCs", "setting": "[3]", "value": "significantly reduce"},
      {"measurement": "EC50", "setting": "[4]", "value": 5.04, "unit": "µM"},
      {"measurement": "BCL-XL, MCL-1 and BCL-2 mRNA levels", "setting": "[5]", "value": "did not observe any significant changes"}
    ]}
  ]
}
